Patent publication US7618990B2, “Oxazolidone derivatives as PR modulators” (Wyeth, priority 2006, dated 2009)

How the values were obtained:
[1] = tested on: alkaline phosphatase activity in T47D cells; test: Effects of progestins and antiprogestins on alkaline phosphatase activity in T47D cells (antagonist mode); assay type: cell-based; details: Homo sapiens, in the presence of 1 nM progesterone, read-out: T47D Alkaline Phosphatase Activity IC50 (nM) or % inhibition; for IC50: 24 h; for inhibition at 0.03 µM: % inhibition at 30 nM; for inhibition at 3 µM: % inhibition at 3000 nM
Description: (1) Effects of Progestins and Antiprogestins on Alkaline Phosphatase Activity in T47D Cells
PURPOSE: To identify progestins or antiprogestins by determining a compound's effect on alkaline phosphatase activity in T47D cells.
Culture Medium: • DMEM:F12 (1:1) (GIBCO, BRL) supplemented with 5% (v/v) charcoal stripped fetal bovine serum (not heat-inactivated), 100 U/mL penicillin, 100 μg/mL streptomycin, and 2 mM the GlutaMax™ reagent (GIBCO, BRL).
Alkaline Phosphatase Assay Buffer: • I. 0.1M Tris-HCl, pH 9.8, containing 0.2% the Triton® X-100 reagent • II. 0.1M Tris-HCl, pH 9.8, containing 4 mM p-nitrophenyl phosphate (Sigma). B. Cell Culture and Treatment:
Frozen T47D cells were thawed in a 37° C. water bath and diluted to 280,000 cells/mL in culture medium. To each well in a 96-well plate (Falcon, Becton Dickinson Labware), 180 μL of diluted cell suspension was added.
Twenty μL of reference or test compounds diluted in the culture medium was then added to each well. When testing for progestin antagonist activity, reference antiprogestins or test compounds were added in the presence of 1 nM progesterone. The cells were incubated at 37° C. in a 5% CO2/humidified atmosphere for 24 h.
NOTE: For high throughput screening, one concentration of each compound was tested at 0.3 μg/mL. Based on an average molecular weight of 300 g/mol for the compounds in the library, the concentration was approximately 1 μM. Subsequently, active compounds were tested in dose response assays to determine EC50 and IC50. C. Alkaline Phosphatase Enzyme Assay:
At the end of treatment, the medium was removed from the plate. Fifty μL of assay buffer I was added to each well. The plates were shaken in a titer plate shaker for 15 min. Then 150 μL of assay buffer II was added to each well. Optical density measurements were taken at 5 min intervals for 30 min at a test wavelength of 405 nm.
For reference and test compounds, a dose response curve was generated for dose (X-axis) vs. the rate of enzyme reaction (slope) (Y-axis). Square root-transformed data was used for analysis of variance and nonlinear dose response curve fitting for both agonist and antagonist modes. Huber weighting was used to down-weight the effects of outliers. EC50 or IC50 values were calculated from the retransformed values. JMP software (SAS Institute, Inc.) was used for both one-way analysis of variance and non-linear dose response analysis in both single dose and dose response studies.
Progesterone and trimegestone were reference progestins and RU486 was the reference antiprogestin. All reference compounds were run in full dose response curves and the EC50 and IC50 values were calculated.

Row | SMILES | IC50 [1] [nM] | further results
1 | N#Cc1ccc(-c2csc(N3C(=O)OCC34CCCC4)n2)cc1 [Example 47, 4-[2-(2-Oxo-3-oxa-1-azaspiro[4.4]non-1-yl)-1,3-thiazol-4-yl]benzonitrile] | 45.4 | melting point: 196 to 198 °C
2 | CC1(C)COC(=O)N1c1nc(-c2cc(Cl)cc(Cl)c2)cs1 [Example 116, 3-[4-(3,5-Dichlorophenyl)-1,3-thiazol-2-yl]-4,4-dimethyl-1,3-oxazolidin-2-one] | 461 | 
3 | N#Cc1ccc(-c2csc(N3CCOC3=O)c2)cc1 [Example 112, 4-[5-(2-Oxo-1,3-oxazolidin-3-yl)-3-thienyl]benzonitrile] | 480 | 
4 | CC1(C)CN(Cc2ccccc2)C(=O)N1c1nc(-c2ccc(C#N)cc2)cs1 [Example 84, 4-[2-(3-Benzyl-5,5-dimethyl-2-oxoimidazolidin-1-yl)-1,3-thiazol-4-yl]benzonitrile] | 77.9 | 
5 | COC(=O)c1ccc(-c2nc(N3C(=O)OCC3(C)C)sc2Cl)cc1 [Example 130, Methyl 4-[5-chloro-2-(4,4-dimethyl-2-oxo-1,3-oxazolidin-3-yl)-1,3-thiazol-4-yl]benzoate] | 181 | 
6 | O=C1OCCN1c1nc(-c2ccc(Cl)cc2)cs1 [Example 131, 3-[4-(4-Chlorophenyl)-1,3-thiazol-2-yl]-1,3-oxazolidin-2-one] | 41.1 | 
7 | CC1(C)COC(=O)N1c1nc(-c2ccc(C(N)=NO)cc2)cs1 [Example 85, 4-[2-(4,4-Dimethyl-2-oxo-1,3-oxazolidin-3-yl)-1,3-thiazol-4-yl]-N′-hydroxybenzene carboximidamide] | 729 | 
8 | CC1(C)COC(=O)N1c1nc(-c2ccc(Cl)cc2)cs1 [Example 114, 3-[4-(4-Chlorophenyl)-1,3-thiazol-2-yl]-4,4-dimethyl-1,3-oxazolidin-2-one] |  | inhibition at 0.03 µM [1]: 53%
9 | CC1(C)COC(=O)N1c1nc(-c2ccc(Cl)cc2Cl)cs1 [Example 118, 3-[4-(2,4-Dichlorophenyl)-1,3-thiazol-2-yl]-4,4-dimethyl-1,3-oxazolidin-2-one] |  | inhibition at 0.03 µM [1]: 60%
10 | CC1(C)CO/C(=N\S(C)(=O)=O)N1c1nc(-c2ccc(C#N)cc2)cs1 [Example 136, N-{(2Z)-3-[4-(4-Cyanophenyl)-1,3-thiazol-2-yl]-4,4-dimethyl-1,3-oxazolidin-2-ylidene}methanesulfonamide] |  | inhibition at 3 µM [1]: 100%
11 | CC1(C)COC(=O)N1c1nc(-c2ccc(OCc3ccccc3)cc2)cs1 [Example 125, 3-{4-[4-(Benzyloxy)phenyl]-1,3-thiazol-2-yl}-4,4-dimethyl-1,3-oxazolidin-2-one] |  | inhibition at 3 µM [1]: 80%
12 | CC1(C)COC(=O)N1c1nc(-c2ccc(Br)cc2)ns1 [Example 93, 3-[3-(4-Bromophenyl)-1,2,4-thiadiazol-5-yl]-4,4-dimethyl-1,3-oxazolidin-2-one] | 135 | 
13 | Cn1cc(-c2csc(N3C(=O)OCC3(C)C)n2)cc1C#N [Example 133, 4-[2-(4,4-Dimethyl-2-oxo-1,3-oxazolidin-3-yl)-1,3-thiazol-4-yl]-1-methyl-1H-pyrrole-2-carbonitrile] | 69.6 | 
14 | CCC1(CC)COC(=O)N1c1nc2c(s1)CCc1cc(C#N)ccc1-2 [Example 86, 2-(4,4-Diethyl-2-oxo-1,3-oxazolidin-3-yl)-4,5-dihydronaphtho[1,2-d][1,3]thiazole-7-carbonitrile] | 5 | 
15 | CCS(=O)(=O)c1cccc(-c2csc(N3C(=O)OCC3(C)C)n2)c1 [Example 102, 3-{4-[3-(Ethylsulfonyl)phenyl]-1,3-thiazol-2-yl}-4,4-dimethyl-1,3-oxazolidin-2-one] |  | inhibition at 3 µM [1]: 27%
16 | CC1(C)COC(=O)N1c1nc(-c2ccc(C#N)cc2)ns1 [Example 94, 4-[5-(4,4-dimethyl-2-oxo-1,3-oxazolidin-3-yl)-1,2,4-thiadiazol-3-yl]benzonitrile] | 146 | 
17 | CN1CC(C)(C)N(c2nc(-c3ccc(C#N)cc3)cs2)C1=O [Example 83, 4-[2-(3,5,5-Trimethyl-2-oxoimidazolidin-1-yl)-1,3-thiazol-4-yl]benzonitrile] | 35.4 | 
18 | Cn1cc(C#N)cc1-c1csc(N2C(=O)OCC2(C)C)n1 [Example 134, 5-[2-(4,4-Dimethyl-2-oxo-1,3-oxazolidin-3-yl)-1,3-thiazol-4-yl]-1-methyl-1H-pyrrole-3-carbonitrile] | 284 | 
19 | CC1(C)COC(=O)N1c1nc(-c2c(F)cc(F)cc2F)cs1 [Example 101, 4,4-Dimethyl-3-[4-(2,4,6-trifluorophenyl)-1,3-thiazol-2-yl]-1,3-oxazolidin-2-one] | 536 | 
20 | O=C1OC[C@H](COCc2ccccc2)N1c1nc(-c2ccc(Br)cc2)cs1 [Example 91, (4S)-4-[(benzyloxy)methyl]-3-[4-(4-bromophenyl)-1,3-thiazol-2-yl]-1,3-oxazolidin-2-one] |  | inhibition at 3 µM [1]: 63%
21 | CC1(C)OCCN1c1nc(-c2ccc(C#N)cc2)cs1 [Example 110, 4-[2-(2,2-Dimethyl-1,3-oxazolidin-3-yl)-1,3-thiazol-4-yl]benzonitrile] | 269 | 
22 | N#Cc1ccc(-c2csc(N3CCOC3=O)n2)cc1 [Example 132, 4-[2-(2-Oxo-1,3-oxazolidin-3-yl)-1,3-thiazol-4-yl]benzonitrile] | 37.6 | 

The next lines start with results.

Row | IC50 [1] [nM] | SMILES | further results
23 | 50.4 | CC1(C)COC(=O)N1c1nc(-c2ccc(F)c(Cl)c2)cs1 [Example 117, 3-[4-(3-Chloro-4-fluorophenyl)-1,3-thiazol-2-yl]-4,4-dimethyl-1,3-oxazolidin-2-one] | 
24 | 28.8 | CC1(C)COC(=O)N1c1nc(-c2ccc(Cl)c(F)c2)cs1 [Example 109, 3-[4-(4-Chloro-3-fluorophenyl)-1,3-thiazol-2-yl]-4,4-dimethyl-1,3-oxazolidin-2-one] | 
25 | 72.2 | CC1(C)COC(=O)N1c1nc(-c2ccc(F)cc2)cs1 [Example 115, 3-[4-(4-Fluorophenyl)-1,3-thiazol-2-yl]-4,4-dimethyl-1,3-oxazolidin-2-one] | 
26 | 328 | CC1(C)COC(=O)N1c1nc(-c2cccc(C(F)(F)F)c2)cs1 [Example 96, 4,4-Dimethyl-3-{4-[3-(trifluoromethyl)phenyl]-1,3-thiazol-2-yl}-1,3-oxazolidin-2-one] | 
27 | 108 | CC1(C)COC(=O)N1c1nc(-c2ccc(C(F)(F)F)cc2)cs1 [Example 95, 4,4-Dimethyl-3-{4-[4-(trifluoromethyl)phenyl]-1,3-thiazol-2-yl}-1,3-oxazolidin-2-one] | 
28 | 854 | COc1ccccc1-c1csc(N2C(=O)OCC2(C)C)n1 [Example 100, 3-[4-(2-Methoxyphenyl)-1,3-thiazol-2-yl]-4,4-dimethyl-1,3-oxazolidin-2-one] | 
29 | 64.6 | COc1cccc(-c2csc(N3C(=O)OCC3(C)C)n2)c1 [Example 99, 3-[4-(3-Methoxyphenyl)-1,3-thiazol-2-yl]-4,4-dimethyl-1,3-oxazolidin-2-one] | 
30 | 247 | CC1(C)COC(=O)N1c1nc(-c2ccccc2)cs1 [Example 120, 4,4-Dimethyl-3-(4-phenyl-1,3-thiazol-2-yl)-1,3-oxazolidin-2-one] | 
31 | 1420 | CC1(C)COC(=O)N1c1nc(-c2ccccc2[N+](=O)[O-])cs1 [Example 123, 4,4-Dimethyl-3-[4-(2-nitrophenyl)-1,3-thiazol-2-yl]-1,3-oxazolidin-2-one] | 
32 | 498 | CC(=O)c1ccc(-c2csc(N3C(=O)OCC3(C)C)n2)cc1 [Example 106, 3-[4-(4-Acetylphenyl)-1,3-thiazol-2-yl]-4,4-dimethyl-1,3-oxazolidin-2-one] | 
33 | 823 | COc1ccc(-c2csc(N3C(=O)OCC3(C)C)n2)cc1OC [Example 108, 3-[4-(3,4-Dimethoxyphenyl)-1,3-thiazol-2-yl]-4,4-dimethyl-1,3-oxazolidin-2-one] | 
34 | 33.4 | Cc1cc(-c2csc(N3C(=O)OCC3(C)C)n2)ccc1F [Example 126, 3-[4-(4-Fluoro-3-methylphenyl)-1,3-thiazol-2-yl]-4,4-dimethyl-1,3-oxazolidin-2-one] | 
35 | 262 | CC1(C)COC(=O)N1c1nc(-c2ccc(CC#N)cc2)cs1 [Example 103, {4-[2-(4,4-Dimethyl-2-oxo-1,3-oxazolidin-3-yl)-1,3-thiazol-4-yl]phenyl}acetonitrile] | 
36 | 83.7 | CC(=O)c1cccc(-c2csc(N3C(=O)OCC3(C)C)n2)c1 [Example 107, 3-[4-(3-Acetylphenyl)-1,3-thiazol-2-yl]-4,4-dimethyl-1,3-oxazolidin-2-one] | 
